Test results reported in patent US20080021030A1, “Substituted Pyrazoles As Ppar Agonists” (priority 2003, published 2008).

How the values were obtained:
[1] = target: T1, hPPAR alpha (Homo sapiens, UniProt Q07869); test: Transient transfection (transactivation) assay in CV-1 cells, GAL4-PPAR LBD chimera, SPAP reporter; type: cell-based; conditions: read-out: EC50 μM HPPARα
T1 construct: expressed in transfected cells; host or cells: CV-1 cells
T1 sequence (Q07869 239-466 limits assumed): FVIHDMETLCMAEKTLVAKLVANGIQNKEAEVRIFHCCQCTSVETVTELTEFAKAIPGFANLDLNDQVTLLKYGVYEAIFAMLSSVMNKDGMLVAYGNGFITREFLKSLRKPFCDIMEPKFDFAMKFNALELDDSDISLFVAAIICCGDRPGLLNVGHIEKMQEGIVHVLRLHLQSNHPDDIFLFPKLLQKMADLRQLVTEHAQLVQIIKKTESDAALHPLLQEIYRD
Source text: (§1) Compounds were screened for functional potency in transient transfection assays in CV-1 cells for their ability to activate the PPAR subtypes (transactivation assay). A previously established chimeric receptor system was utilized to allow comparison of the relative transcriptional activity of the receptor subtypes on the same target gene and to prevent endogenous receptor activation from complicating the interpretation of results. See, for example, Lehmann, J. M.; Moore, L. B.; Smith-Oliver, T. A.; Wilkison, W. O.; Willson, T. M.; Kliewer, S. A., An antidiabetic thiazolidinedione is a high affinity ligand for peroxisome proliferator-activated receptor gamma (PPARgamma), J. Biol. Chem., 270, 12953-6 (1995). The ligand binding domains for murine and human PPAR alpha, PPAR gamma, and PPAR delta were each fused to the yeast transcription factor GAL4 DNA binding domain. CV-1 cells were transiently transfected with expression vectors for the respective PPAR chimera along with a reporter construct containing five copies of the GAL4 DNA binding site driving expression of secreted placental alkaline phosphatase (SPAP) and beta-galactosidase. After 16 h, the medium was exchanged to DME medium supplemented with 10% delipidated fetal calf serum and the test compound at the appropriate concentration. After an additional 24 h, cell extracts were prepared and assayed for alkaline phosphatase and β-galactosidase activity. Alkaline phosphatase activity was corrected for transfection efficiency using the beta-galactosidase activity as an internal standard (see, for example, Kliewer, S. A., et. al. Cell 83, 813-819 (1995)). Rosiglitazone (BRL 49653) was used as a positive control in the hPPAR gamma assay. The positive control in the hPPAR alpha assays was 2-4-[2-(3-[4-fluorophenyl]-1-heptylureido)ethyl]-phenoxy-(2-methyl propionic acid (WO 97/36579). The positive control for PPAR delta assays was 2-{2-methyl-4-[({4-methyl-2-{trifluoromethyl)phenyl]-1,3-thiazol-5-yl}methyl)sulfanyl]phenoxy}acetic acid (WO 01/00603). The positive control was (5-{4-[2-(Methyl-pyridin-2-yl-amino)-ethoxy]-benzyl}-thiazolidine-2,4-dione (J. Med. Chem. 1994, 37(23), 3977), for PPAR gamma.
(§2) Activities in three hPPAR subtypes are reported in the table and are expressed in micromolar.

[2] = target: T2, hPPAR delta (Homo sapiens, UniProt Q03181); test: as above; type: cell-based; conditions: read-out: EC50 μM HPPARδ
T2 construct: expressed in transfected cells; host or cells: CV-1 cells
T2 sequence (Q03181 211-439 limits assumed): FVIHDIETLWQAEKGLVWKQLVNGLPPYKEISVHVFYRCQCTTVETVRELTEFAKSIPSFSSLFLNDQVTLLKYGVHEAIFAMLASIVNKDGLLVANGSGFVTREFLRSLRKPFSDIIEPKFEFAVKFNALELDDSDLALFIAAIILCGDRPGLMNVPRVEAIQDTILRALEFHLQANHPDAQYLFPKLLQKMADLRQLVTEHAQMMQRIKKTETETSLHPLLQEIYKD
Source text: as §1, §2

[3] = target: T3, hPPAR gamma (Homo sapiens, UniProt P37231); test: as above; type: cell-based; conditions: read-out: EC50 μM HPPARγ
T3 construct: expressed in transfected cells; host or cells: CV-1 cells
T3 sequence (P37231 238-503 limits assumed): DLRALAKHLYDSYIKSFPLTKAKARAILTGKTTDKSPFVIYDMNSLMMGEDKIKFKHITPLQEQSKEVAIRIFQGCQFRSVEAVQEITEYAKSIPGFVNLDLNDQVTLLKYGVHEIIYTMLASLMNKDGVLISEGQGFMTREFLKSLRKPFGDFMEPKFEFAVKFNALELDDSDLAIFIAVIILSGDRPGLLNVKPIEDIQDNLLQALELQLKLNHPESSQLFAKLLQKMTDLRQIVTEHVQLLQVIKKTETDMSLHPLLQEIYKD
Source text: Compounds were screened for functional potency in transient transfection assays in CV-1 cells for their ability to activate the PPAR subtypes (transactivation assay). A previously established chimeric receptor system was utilized to allow comparison of the relative transcriptional activity of the receptor subtypes on the same target gene and to prevent endogenous receptor activation from complicating the interpretation of results. […] The ligand binding domains for murine and human PPAR alpha, PPAR gamma, and PPAR delta were each fused to the yeast transcription factor GAL4 DNA binding domain. CV-1 cells were transiently transfected with expression vectors for the respective PPAR chimera along with a reporter construct containing five copies of the GAL4 DNA binding site driving expression of secreted placental alkaline phosphatase (SPAP) and beta-galactosidase. After 16 h, the medium was exchanged to DME medium supplemented with 10% delipidated fetal calf serum and the test compound at the appropriate concentration. After an additional 24 h, cell extracts were prepared and assayed for alkaline phosphatase and β-galactosidase activity.

| SMILES | EC50 [1] | EC50 [2] | EC50 [3] | melting point |
| --- | --- | --- | --- | --- |
| Cc1cc(CNC(=O)c2cc(-c3ccc(-c4cccs4)cc3)n(C)n2)ccc1OC(C)(C)C(=O)O [Example 32, 2-methyl-2-[(2-methyl-4-{[({1-methyl-5-[4-(2-thienyl)phenyl]-1H-pyrazol-3-yl}carbonyl)amino]methyl}phenyl)oxy]propanoic acid] | 0.015 µM | > 25 µM | 0.023 µM | 92 °C |
| COCCn1nc(C(=O)NCc2ccc(OC(C)(C)C(=O)O)c(C)c2)cc1-c1ccc(C(C)(C)C)cc1 [Example 52, 2-[(4-{[({5-[4-(1,1-dimethylethyl)phenyl]-1-[2-(methyloxy)ethyl]-1H-pyrazol-3-yl}carbonyl)amino]methyl}-2-methylphenyl)oxy]-2-methylpropanoic acid] | 0.042 µM | > 25 µM | 0.478 µM | 65 °C |
| C=CCOc1ccc(-c2cc(C(=O)NCc3ccc(OC(C)(C)C(=O)O)c(C)c3)n(C)n2)cc1 [Example 56, 2-methyl-2-[(2-methyl-4-{[({1-methyl-3-[4-(2-propen-1-yloxy)phenyl]-1H-pyrazol-5-yl}carbonyl)amino]methyl}phenyl)oxy]propanoic acid] | 0.894 µM | > 25 µM | 0.287 µM | 70 °C |
| Cc1cc(CNC(=O)c2cc(-c3ccc(Br)cc3)n(C)n2)ccc1OC(C)(C)C(=O)O [Example 30, 2-({4-[({[5-(4-bromophenyl)-1-methyl-1H-pyrazol-3-yl]carbonyl}amino)methyl]-2-methylphenyl}oxy)-2-methylpropanoic acid] | 0.046 µM | 3.12 µM | 0.229 µM | 84 to 92 °C |
| COCCn1nc(-c2ccc(C(C)(C)C)cc2)cc1C(=O)NCc1ccc(OC(C)(C)C(=O)O)c(C)c1 [Example 48, 2-[(4-{[({3-[4-(1,1-dimethylethyl)phenyl]-1-[2-(methyloxy)ethyl]-1H-pyrazol-5-yl}carbonyl)amino]methyl}-2-methylphenyl)oxy]-2-methylpropanoic acid] | 0.066 µM | 2.05 µM | 0.303 µM | 112 °C |
| Cc1cc(CNC(=O)c2cc(-c3ccc(-c4ccoc4)cc3)n(C)n2)ccc1OC(C)(C)C(=O)O [Example 33, 2-[(4-{[({5-[4-(3-furanyl)phenyl]-1-methyl-1H-pyrazol-3-yl}carbonyl)amino]methyl}-2-methylphenyl)oxy]-2-methylpropanoic acid] | 0.004 µM | 1.64 µM | – | 102 °C |
| Cc1cc(CNC(=O)c2cc(-c3ccc(OCc4ccccc4)cc3)nn2C)ccc1OC(C)(C)C(=O)O [Example 57, 2-methyl-2-{[2-methyl-4-({[(1-methyl-3-{4-[(phenylmethyl)oxy]phenyl}-1H-pyrazol-5-yl)carbonyl]amino}methyl)phenyl]oxy}propanoic acid] | 0.657 µM | > 8 µM | 0.118 µM | 72 °C |
| Cc1cc(CNC(=O)c2cc(-c3ccc(-c4ccccc4C)cc3)nn2C)ccc1OC(C)(C)C(=O)O [Example 36, 2-methyl-2-{2-methyl-4-[({[1-methyl-3-(2′-methylbiphenyl-4-yl)-1H-pyrazol-5-yl]carbonyl}amino)methyl]phenoxy}propanoic acid] | 0.176 µM | 5.17 µM | 0.037 µM | 90 to 100 °C |
| Cc1cc(CNC(=O)c2cc(-c3ccc(-c4ccncc4)cc3)n(C)n2)ccc1OC(C)(C)C(=O)O [Example 34, 2-methyl-2-[(2-methyl-4-{[({1-methyl-5-[4-(4-pyridinyl)phenyl]-1H-pyrazol-3-yl}carbonyl)amino]methyl}phenyl)oxy]propanoic acid] | 0.734 µM | > 25 µM | – | 264 °C (dec.) |
| Cc1cc(CNC(=O)c2cc(-c3ccc(CC(C)C)cc3)n(C)n2)cc(Cl)c1OC(C)(C)C(=O)O [Example 27, 2-{2-chloro-4-[({[5-(4-isobutylphenyl)-1-methyl-1H-pyrazol-3-yl]carbonyl}amino)methyl]-6-methylphenoxy}-2-methylpropanoic acid] | < 0.001 µM | 0.206 µM | 0.031 µM | 75 to 80 °C |
| Cc1cc(CNC(=O)c2cc(-c3ccc(C(C)(C)C)cc3)nn2CC(=O)c2ccccc2)ccc1OC(C)(C)C(=O)O [Example 49, 2-({4-[({[3-[4-(1,1-dimethylethyl)phenyl]-1-(2-oxo-2-phenylethyl)-1H-pyrazol-5-yl]carbonyl}amino)methyl]-2methylphenyl}oxy)-2-methylpropanoic acid] | 0.257 µM | 1.17 µM | 0.052 µM | 116 °C |
| Cc1cc(CNC(=O)c2cc(-c3ccc(C(C)(C)C)cc3)nn2C)cc(C)c1OC(C)(C)C(=O)O [Example 26, 2-{4-[({[3-(4-tert-butylphenyl)-1-methyl-1H-pyrazol-5-yl]carbonyl}amino)methyl]-2,6-dimethylphenoxy}-2-methylpropanoic acid] | 0.003 µM | 1 µM | 0.016 µM | > 122 °C |
| Cc1cc(CNC(=O)c2cc(-c3cccc(-c4ccccc4)c3)nn2C)ccc1OC(C)(C)C(=O)O [Example 28, 2-[4-({[(3-biphenyl-3-yl-1-methyl-1H-pyrazol-5-yl)carbonyl]amino}methyl)-2-methylphenoxy]-2-methylpropanoic acid] | 0.589 µM | > 25 µM | 1.47 µM | 88 °C |
| Cc1cc(CNC(=O)c2cc(-c3ccc(-c4ccco4)cc3)n(C)n2)ccc1OC(C)(C)C(=O)O [Example 35, 2-[(4-{[({5-[4-(2-furanyl)phenyl]-1-methyl-1H-prazol-3-yl}carbonyl)amino]methyl}-2-methylphenyl)oxy]-2-methylpropanoic acid] | 0.024 µM | > 25 µM | 0.054 µM | 96 °C |
| Cc1cc(CNC(=O)c2cc(-c3ccc(C(C)(C)C)cc3)[nH]n2)ccc1OC(C)(C)C(=O)O [Example 53, 2-[(4-{[({5-[4-(1,1-dimethylethyl)phenyl]-1H-pyrazol-3-yl}carbonyl)amino]methyl}-2-methylphenyl)oxy]-2-methylpropanoic acid] | 0.383 µM | > 25 µM | 0.269 µM | 100 °C |
| Cc1cc(CNC(=O)c2cc(-c3ccc(N4CCOCC4)cc3)nn2C)ccc1OC(C)(C)C(=O)O [Example 39, 2-methyl-2-[(2-methyl-4-{[({1-methyl-3-[4-(4-morpholinyl)phenyl]-1H-pyrazol-5-yl}carbonyl)amino]methyl}phenyl)oxy]propanoic acid] | 1.06 µM | > 25 µM | 1.04 µM | – |
